# Measurements as given in patent US20030104507A1, “Method for detection of ATP” (priority 2001, published 2003).
# Tests used:
# LucPpy = target: T1, LucPpy (Photinus pyralis, UniProt P08659); assay: Stability of reagent composition with LucPpy and detergent (RT, pH 7.0); assay type: biochemical; conditions: for Half-life of Luminescence Activity: Common firefly luciferase (P. pyralis); for Average Relative Light Units / Percent of Luminescence Remaining: LucPpy
# T1 construct: purchased Promega E170A
# Source text: (§1) The detergents used for inhibition of endogenous ATPase activity in a sample also affect activity of luciferase. […] It is ultimately the extended stability of a reagent composition, comprising an ATPase inhibitor and a luciferase enzyme, which provides a composition useful for measuring ATP, in a sample or samples, over an extended period of time.
# (§2) In this experiment, the stability of a reagent composition comprising wild type LucPpy was compared to the stability of a reagent composition comprising LucPpe2m146 at about 23° C. (room temperature). The various reagent compositions had varying detergent concentrations.
# (§3) Two solutions were created as listed below. One contained the luciferase, luciferin, MgSO4, and buffer (reagent composition). The other solution contained media plus ATP (media solution).
# (§4) 50 μg/ml enzyme (LucPpy is Promega catalog #E170A)
# (§5) Detergent (at various concentrations, see table below)
# (§6) For each reagent composition, all ingredients except the luciferase enzyme were assembled; the enzyme was then added immediately before the first luminescence reading was taken. Immediately after addition of enzyme to each reagent composition and for various timepoints thereafter, 100 μl aliquots of the reagent composition were added to wells of a 96-well microtitre luminometer plate in triplicate. To these were added 100 μl Media Solution containing the ATP. Luminescence was then immediately read on a Dynex MLX microtitreplate luminometer, 0.5 second reads per well. The average relative light unit values as well as the reaction half lives are listed below in Table I and the percent of original luminescence remaining at each timepoint is listed in Table J below. The timepoint at the top of the column indicates the time at which the first rlu measurement for the samples in that column was read. […] Times listed in Table I are the same for Table J. The values for sulfobetaine and for CTAB were generated on different days, they are presented with the control values generated in the same experiment.
# LucPpe2m146 = assay: Stability of reagent composition with LucPpe2m146 and detergent (RT, pH 7.0); assay type: biochemical, Photuris pennsylvanica
# Source text: as §1, §2, §3, §4, §5, §6
structure (smiles),measurement,setting,value
"CCCCCCCCCCCC[N+](C)(C)Cc1ccccc1.[Br-] [BDDABr, Benzyldimethyldodecylammonium bromide]",Half-life of Luminescence Activity,LucPpy; conc. 0.100,no activity
same,Half-life of Luminescence Activity,LucPpy; conc. 0.500,no activity
same,Average Relative Light Units,"LucPpy; 0.02%, 0.75 min (head r32)",2894.700 rlu
same,Percent of Luminescence Remaining,"LucPpy; 0.02%, 0.75 min (times of Table I r32)",100.00%
same,Average Relative Light Units,"LucPpy; 0.02%, 38 min (head r32)",0.035 rlu
same,Percent of Luminescence Remaining,"LucPpy; 0.02%, 38 min (times of Table I r32)",0.00%
same,Average Relative Light Units,"LucPpy; 0.02%, 70 min (head r32)",0.015 rlu
same,Percent of Luminescence Remaining,"LucPpy; 0.02%, 70 min (times of Table I r32)",0.00%
same,Average Relative Light Units,"LucPpy; 0.02%, 94 min (head r32)",0.016 rlu
same,Average Relative Light Units,"LucPpy; 0.02%, 122 min (head r32)",0.011 rlu
same,Average Relative Light Units,"LucPpy; 0.1%, 0.75 min (head r18)",0.007 rlu
same,Percent of Luminescence Remaining,"LucPpy; 0.1%, 0.75 min (times of Table I r18)",100.00%
same,Average Relative Light Units,"LucPpy; 0.5%, 0.75 min (head r5)",0.001 rlu
same,Percent of Luminescence Remaining,"LucPpy; 0.5%, 0.75 min (times of Table I r5)",100.00%
same,Average Relative Light Units,"LucPpe2m146; LucPpe2m146, 0.02%, 1.0 min (head r67)",26548.60 rlu
same,Percent of Luminescence Remaining,"LucPpe2m146; LucPpe2m146, 0.02%, 1.0 min (times of Table I r67)",100.00%
same,Average Relative Light Units,"LucPpe2m146; LucPpe2m146, 0.02%, 34 min (head r67)",26272.87 rlu
same,Percent of Luminescence Remaining,"LucPpe2m146; LucPpe2m146, 0.02%, 34 min (times of Table I r67)",98.96%
same,Average Relative Light Units,"LucPpe2m146; LucPpe2m146, 0.02%, 65 min (head r67)",25766.43 rlu
same,Percent of Luminescence Remaining,"LucPpe2m146; LucPpe2m146, 0.02%, 65 min (times of Table I r67)",97.05%
same,Average Relative Light Units,"LucPpe2m146; LucPpe2m146, 0.02%, 115 min (head r67)",24155.00 rlu
same,Percent of Luminescence Remaining,"LucPpe2m146; LucPpe2m146, 0.02%, 115 min (times of Table I r67)",90.98%
same,Average Relative Light Units,"LucPpe2m146; LucPpe2m146, 0.02%, 175 min (head r67)",25891.70 rlu
same,Percent of Luminescence Remaining,"LucPpe2m146; LucPpe2m146, 0.02%, 175 min (times of Table I r67)",97.53%
same,Average Relative Light Units,"LucPpe2m146; LucPpe2m146, 0.02%, 238 min (head r67)",24959.1 rlu
same,Percent of Luminescence Remaining,"LucPpe2m146; LucPpe2m146, 0.02%, 238 min (times of Table I r67)",94.01%
same,Average Relative Light Units,"LucPpe2m146; LucPpe2m146, 0.02%, 286 min (head r67)",24510.1 rlu
same,Percent of Luminescence Remaining,"LucPpe2m146; LucPpe2m146, 0.02%, 286 min (times of Table I r67)",92.32%
same,Average Relative Light Units,"LucPpe2m146; LucPpe2m146, 0.1%, 1.0 min (head r54)",29.71 rlu
same,Percent of Luminescence Remaining,"LucPpe2m146; LucPpe2m146, 0.1%, 1.0 min (times of Table I r54)",100.00%
same,Average Relative Light Units,"LucPpe2m146; LucPpe2m146, 0.1%, 34 min (head r54)",66.09 rlu
same,Percent of Luminescence Remaining,"LucPpe2m146; LucPpe2m146, 0.1%, 34 min (times of Table I r54)",222.47%
same,Average Relative Light Units,"LucPpe2m146; LucPpe2m146, 0.1%, 65 min (head r54)",62.19 rlu
same,Percent of Luminescence Remaining,"LucPpe2m146; LucPpe2m146, 0.1%, 65 min (times of Table I r54)",209.32%
same,Average Relative Light Units,"LucPpe2m146; LucPpe2m146, 0.1%, 115 min (head r54)",45.18 rlu
same,Percent of Luminescence Remaining,"LucPpe2m146; LucPpe2m146, 0.1%, 115 min (times of Table I r54)",152.09%
same,Average Relative Light Units,"LucPpe2m146; LucPpe2m146, 0.1%, 175 min (head r54)",33.89 rlu
same,Percent of Luminescence Remaining,"LucPpe2m146; LucPpe2m146, 0.1%, 175 min (times of Table I r54)",114.06%
same,Average Relative Light Units,"LucPpe2m146; LucPpe2m146, 0.1%, 238 min (head r54)",34.46 rlu
same,Percent of Luminescence Remaining,"LucPpe2m146; LucPpe2m146, 0.1%, 238 min (times of Table I r54)",115.98%
same,Average Relative Light Units,"LucPpe2m146; LucPpe2m146, 0.1%, 286 min (head r54)",126.90 rlu
same,Percent of Luminescence Remaining,"LucPpe2m146; LucPpe2m146, 0.1%, 286 min (times of Table I r54)",427.13%
same,Average Relative Light Units,"LucPpe2m146; LucPpe2m146, 0.5%, 15 min (head r41)",2.040 rlu
same,Percent of Luminescence Remaining,"LucPpe2m146; LucPpe2m146, 0.5%, 15 min (times of Table I r41)",100.00%
same,Average Relative Light Units,"LucPpe2m146; LucPpe2m146, 0.5%, 72 min (head r41)",1.140 rlu
same,Percent of Luminescence Remaining,"LucPpe2m146; LucPpe2m146, 0.5%, 72 min (times of Table I r41)",55.90%
same,Average Relative Light Units,"LucPpe2m146; LucPpe2m146, 0.5%, 124 min (head r41)",0.998 rlu
same,Percent of Luminescence Remaining,"LucPpe2m146; LucPpe2m146, 0.5%, 124 min (times of Table I r41)",48.93%
same,Average Relative Light Units,"LucPpe2m146; LucPpe2m146, 0.5%, 190 min (head r41)",0.899 rlu
same,Percent of Luminescence Remaining,"LucPpe2m146; LucPpe2m146, 0.5%, 190 min (times of Table I r41)",44.07%
same,Average Relative Light Units,"LucPpe2m146; LucPpe2m146, 0.5%, 251 min (head r41)",1.042 rlu
same,Percent of Luminescence Remaining,"LucPpe2m146; LucPpe2m146, 0.5%, 251 min (times of Table I r41)",51.10%
